In article PMC6934184, “Selective DNA-PKcs inhibition extends the therapeutic index of localized radiotherapy and chemotherapy” (The Journal of Clinical Investigation, 2019):

Target: T1, WNK3 (Homo sapiens, UniProt Q9BYP7)
T1 construct: purchased Thermo Fisher Scientific (Life Technologies) SelectScreen
Experiment: SelectScreen LanthaScreen
Type: binding
Conditions: read-out: % displacement
Summary of the method: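 Percent values come from Thermo SelectScreen profiling of NU5455, combining activity and binding assays. CSF1R was run in Z'LYTE format at Km app ATP, and CAMK1 in Adapta format with ATP listed at 10.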

T1 sequence (Q9BYP7 whole entry): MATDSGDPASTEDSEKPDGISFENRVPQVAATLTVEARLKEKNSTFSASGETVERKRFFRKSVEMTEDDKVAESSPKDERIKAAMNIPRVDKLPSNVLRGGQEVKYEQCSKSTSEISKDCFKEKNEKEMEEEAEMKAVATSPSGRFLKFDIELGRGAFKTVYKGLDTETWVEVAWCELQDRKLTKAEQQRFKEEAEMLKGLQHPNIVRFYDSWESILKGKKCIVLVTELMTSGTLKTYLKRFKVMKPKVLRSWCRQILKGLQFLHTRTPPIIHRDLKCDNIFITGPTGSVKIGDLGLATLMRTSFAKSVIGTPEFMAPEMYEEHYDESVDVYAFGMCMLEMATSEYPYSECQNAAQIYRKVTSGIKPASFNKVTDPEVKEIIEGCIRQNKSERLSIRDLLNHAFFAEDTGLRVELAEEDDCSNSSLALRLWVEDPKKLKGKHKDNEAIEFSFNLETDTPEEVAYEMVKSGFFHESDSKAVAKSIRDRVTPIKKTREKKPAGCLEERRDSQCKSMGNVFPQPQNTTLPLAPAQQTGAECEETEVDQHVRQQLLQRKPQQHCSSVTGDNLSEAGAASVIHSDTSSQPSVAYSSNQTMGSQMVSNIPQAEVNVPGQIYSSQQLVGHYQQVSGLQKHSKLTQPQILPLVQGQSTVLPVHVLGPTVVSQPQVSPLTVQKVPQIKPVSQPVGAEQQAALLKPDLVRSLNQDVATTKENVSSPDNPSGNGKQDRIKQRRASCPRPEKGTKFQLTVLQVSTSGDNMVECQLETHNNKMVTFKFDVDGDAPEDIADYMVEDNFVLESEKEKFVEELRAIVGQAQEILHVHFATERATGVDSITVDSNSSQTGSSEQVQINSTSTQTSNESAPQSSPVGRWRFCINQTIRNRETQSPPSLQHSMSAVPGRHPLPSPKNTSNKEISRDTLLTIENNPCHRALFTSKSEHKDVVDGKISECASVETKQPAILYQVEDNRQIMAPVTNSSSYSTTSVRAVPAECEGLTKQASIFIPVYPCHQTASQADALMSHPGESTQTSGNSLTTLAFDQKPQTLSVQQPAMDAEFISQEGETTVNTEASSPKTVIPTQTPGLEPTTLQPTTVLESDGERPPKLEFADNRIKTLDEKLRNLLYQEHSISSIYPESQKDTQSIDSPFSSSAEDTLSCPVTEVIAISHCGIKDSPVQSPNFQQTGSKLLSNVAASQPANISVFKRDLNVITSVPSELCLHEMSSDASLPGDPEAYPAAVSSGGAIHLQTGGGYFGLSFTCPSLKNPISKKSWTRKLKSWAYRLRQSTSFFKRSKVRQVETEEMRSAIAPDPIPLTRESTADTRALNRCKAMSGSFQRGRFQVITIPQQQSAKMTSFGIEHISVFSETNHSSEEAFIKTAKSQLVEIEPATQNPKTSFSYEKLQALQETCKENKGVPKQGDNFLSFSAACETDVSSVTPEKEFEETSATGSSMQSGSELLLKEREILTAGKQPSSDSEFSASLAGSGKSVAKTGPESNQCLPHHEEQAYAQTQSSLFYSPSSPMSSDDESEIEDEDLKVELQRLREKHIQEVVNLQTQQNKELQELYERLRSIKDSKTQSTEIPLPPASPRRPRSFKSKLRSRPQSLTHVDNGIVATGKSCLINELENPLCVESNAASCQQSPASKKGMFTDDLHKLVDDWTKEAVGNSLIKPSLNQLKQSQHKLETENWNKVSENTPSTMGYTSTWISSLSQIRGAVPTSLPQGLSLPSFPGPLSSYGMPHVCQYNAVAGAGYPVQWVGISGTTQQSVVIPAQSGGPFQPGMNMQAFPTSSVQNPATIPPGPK

CN(C(=O)CN1CCOCC1)c1ccc2sc3c(-c4cccc5c(=O)cc(N6CC7CCC(C6)O7)oc45)cccc3c2c1 [NU5455]
inhibition at 1 µM: -1.2%
